Experimental data reported in patent publication US11053204B2, “Pyrimidinyloxy benzene derivatives as herbicides” (FMC Corporation, priority 2015, dated 2021).

How the values were obtained:
Type in all cases: in vivo
[1] = system: sedge, umbrella (small-flower umbrella sedge, Cyperus difformis); assay: Test B flooded paddy test, plant response rating; details: 250 g ai/ha; Flood; scale of 0 to 100 where 0 is no effect and 100 is complete control; 13 to 15 days
How it was run: (§1)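 In-water treatment: compound dosed into 3 cm flood over soil, water level unchanged throughout. Controls run alongside; visual assessment at day 13–15.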

[2] = system: rice (Oryza sativa); assay: Test B flooded paddy test, plant response rating; details: 250 g ai/ha; Flood; scale of 0 to 100 where 0 is no effect and 100 is complete control; 13 to 15 days
How it was run: as §1

[3] = system: barnyardgrass (Echinochloa crus-galli); assay: Test B flooded paddy test, plant response rating; details: 250 g ai/ha; Flood; scale of 0 to 100 where 0 is no effect and 100 is complete control; 13 to 15 days
How it was run: as §1

[4] = system: surinam grass (Brachiaria decumbens); assay: Test C preemergence, plant response rating
[5] = system: wild poinsettia (Euphorbia heterophylla); assay: Test C preemergence, plant response rating
[6] = system: soybean (Glycine max); assay: Test C preemergence, plant response rating; details: Preemergence
How it was run: (§2)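 Pre-emergence: seeds sown in loam soil–sand blend or silt loam and sprayed with test chemicals in a non-phytotoxic solvent mixture with surfactant. Post-emergence: plants 2 to 18 cm (1- to 4-leaf stage) in peat-based potting medium, same formulation. Greenhouse 13 to 15 d; visual rating 0 (no effect) to 100 (complete control) versus controls.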

[7] = system: blackgrass (Alopecurus myosuroides); assay: Test C preemergence, plant response rating; details: Preemergence
How it was run: as §2

[8] = system: lambsquarters (Chenopodium album); assay: Test C preemergence, plant response rating; details: Preemergence
How it was run: as §2

[9] = system: ryegrass, Italian (Italian ryegrass, Lolium multiflorum); assay: Test C preemergence, plant response rating; details: Preemergence
How it was run: as §2

[10] = system: wheat (winter wheat, Triticum aestivum); assay: Test C preemergence, plant response rating; details: Preemergence
How it was run: as §2

[11] = system: waterhemp (common waterhemp, Amaranthus rudis); assay: Test C preemergence, plant response rating; details: Preemergence
How it was run: as §2

[12] = system: velvetleaf (Abutilon theophrasti); assay: Test C preemergence, plant response rating; details: Preemergence
How it was run: as §2

[13] = system: crabgrass, large (large crabgrass, Digitaria sanguinalis); assay: Test C preemergence, plant response rating; details: Preemergence
How it was run: as §2

[14] = system: nutsedge, yellow (yellow nutsedge, Cyperus esculentus); assay: Test C preemergence, plant response rating; details: Preemergence
How it was run: as §2

[15] = system: morningglory (Ipomoea coccinea); assay: Test C preemergence, plant response rating; details: Preemergence
How it was run: as §2

[16] = system: corn (Zea mays); assay: Test C preemergence, plant response rating; details: Preemergence
How it was run: as §2

[17] = system: oilseed rape (Brassica napus); assay: Test C preemergence, plant response rating; details: Preemergence
How it was run: as §2

[18] = system: ragweed (common ragweed, Ambrosia elatior); assay: Test C preemergence, plant response rating; details: Preemergence
How it was run: as §2

[19] = system: foxtail, giant (giant foxtail, Setaria faberii); assay: Test C preemergence, plant response rating; details: Preemergence
How it was run: as §2

[20] = system: oat, wild (wild oat Avena fatua); assay: Test C preemergence, plant response rating

O=C(CCCC(F)(F)F)c1c(Cl)cccc1Oc1ncc(Cl)cn1 [Compound 143]
Plant response rating, Sedge, Umbrella [1]: 90 | Plant response rating, Rice [2]: 40 | Plant response rating, Barnyardgrass [3]: 50 | Plant response rating, Surinam Grass ([4]; 31 g ai/ha, scale 0 to 100): 10 | Plant response rating, Surinam Grass ([4]; 62 g ai/ha, scale 0 to 100): 35 | Plant response rating, Surinam Grass ([4]; 125 g ai/ha, scale of 0 to 100): 50 | Plant response rating, Poinsettia, Wild ([5]; 31 g ai/ha, scale 0 to 100): 5 | Plant response rating, Poinsettia, Wild ([5]; 62 g ai/ha, scale 0 to 100): 20 | Plant response rating, Poinsettia, Wild ([5]; 125 g ai/ha, scale of 0 to 100): 25 | Plant response rating, Soybean ([6]; 125 g ai/ha, scale of 0 to 100): 20 | Plant response rating, Soybean ([6]; 31 g ai/ha, scale 0 to 100): 0 | Plant response rating, Soybean ([6]; 62 g ai/ha, scale 0 to 100): 15 | Plant response rating, Blackgrass ([7]; 125 g ai/ha, scale of 0 to 100): 75 | Plant response rating, Blackgrass ([7]; 16 g ai/ha, scale 0 to 100): 5 | Plant response rating, Blackgrass ([7]; 31 g ai/ha, scale 0 to 100): 75 | Plant response rating, Blackgrass ([7]; 62 g ai/ha, scale 0 to 100): 80 | Plant response rating, Lambsquarters ([8]; 125 g ai/ha, scale of 0 to 100): 95 | Plant response rating, Lambsquarters ([8]; 31 g ai/ha, scale 0 to 100): 10 | Plant response rating, Lambsquarters ([8]; 62 g ai/ha, scale 0 to 100): 95 | Plant response rating, Ryegrass, Italian ([9]; 125 g ai/ha, scale of 0 to 100): 45 | Plant response rating, Ryegrass, Italian ([9]; 31 g ai/ha, scale 0 to 100): 20 | Plant response rating, Ryegrass, Italian ([9]; 62 g ai/ha, scale 0 to 100): 30 | Plant response rating, Wheat ([10]; 125 g ai/ha, scale of 0 to 100): 0 | Plant response rating, Wheat ([10]; 31 g ai/ha, scale 0 to 100): 0 | Plant response rating, Wheat ([10]; 62 g ai/ha, scale 0 to 100): 0 | Plant response rating, Waterhemp ([11]; 125 g ai/ha, scale of 0 to 100): 100 | Plant response rating, Waterhemp ([11]; 31 g ai/ha, scale 0 to 100): 98 | Plant response rating, Waterhemp ([11]; 62 g ai/ha, scale 0 to 100): 100 | Plant response rating, Velvetleaf ([12]; 125 g ai/ha, scale of 0 to 100): 70 | Plant response rating, Velvetleaf ([12]; 31 g ai/ha, scale 0 to 100): 10 | Plant response rating, Velvetleaf ([12]; 62 g ai/ha, scale 0 to 100): 40 | Plant response rating, Crabgrass, Large ([13]; 125 g ai/ha, scale of 0 to 100): 100 | Plant response rating, Crabgrass, Large ([13]; 16 g ai/ha, scale 0 to 100): 70 | Plant response rating, Crabgrass, Large ([13]; 31 g ai/ha, scale 0 to 100): 100 | Plant response rating, Crabgrass, Large ([13]; 62 g ai/ha, scale 0 to 100): 100 | Plant response rating, Nutsedge, Yellow ([14]; 125 g ai/ha, scale of 0 to 100): 5 | Plant response rating, Nutsedge, Yellow ([14]; 31 g ai/ha, scale 0 to 100): 0 | Plant response rating, Nutsedge, Yellow ([14]; 62 g ai/ha, scale 0 to 100): 0 | Plant response rating, Morningglory ([15]; 125 g ai/ha, scale of 0 to 100): 25 | Plant response rating, Morningglory ([15]; 31 g ai/ha, scale 0 to 100): 0 | Plant response rating, Morningglory ([15]; 62 g ai/ha, scale 0 to 100): 5 | Plant response rating, Corn ([16]; 125 g ai/ha, scale of 0 to 100): 20 | Plant response rating, Corn ([16]; 16 g ai/ha, scale 0 to 100): 5 | Plant response rating, Corn ([16]; 31 g ai/ha, scale 0 to 100): 0 | Plant response rating, Corn ([16]; 62 g ai/ha, scale 0 to 100): 0 | Plant response rating, Oilseed Rape ([17]; 125 g ai/ha, scale of 0 to 100): 98 | Plant response rating, Oilseed Rape ([17]; 31 g ai/ha, scale 0 to 100): 5 | Plant response rating, Oilseed Rape ([17]; 62 g ai/ha, scale 0 to 100): 80 | Plant response rating, Ragweed ([18]; 125 g ai/ha, scale of 0 to 100): 5 | Plant response rating, Ragweed ([18]; 31 g ai/ha, scale 0 to 100): 0 | Plant response rating, Ragweed ([18]; 62 g ai/ha, scale 0 to 100): 0 | Plant response rating, Foxtail, Giant ([19]; 125 g ai/ha, scale of 0 to 100): 100 | Plant response rating, Foxtail, Giant ([19]; 31 g ai/ha, scale 0 to 100): 98 | Plant response rating, Foxtail, Giant ([19]; 62 g ai/ha, scale 0 to 100): 100 | Plant response rating, Oat, Wild ([20]; 31 g ai/ha, scale 0 to 100): 0 | Plant response rating, Oat, Wild ([20]; 62 g ai/ha, scale 0 to 100): 5 | Plant response rating, Oat, Wild ([20]; 125 g ai/ha, scale of 0 to 100): 5
